Experimental data: US9700546B2, “Trivalent chromium compounds, compositions and methods of use” (INTERHEALTH NUTRACEUTICALS, INC., priority 2006, dated 2017)

Assays:
Obese Zucker rats [1] = test: In vivo assessment in obese Zucker rats: vascular inflammation markers (MCP-1, CRP, RBP-4, leptin, ICAM, adiponectin); settings: obese Zucker rats, daily 400 μg Cr(III)/kg, 8 weeks, mean; for Adiponectin / CRP / ICAM / MCP-1: plasma, ELISA
Obese Zucker rats [2] = test: In vivo assessment in obese Zucker rats: key biological parameters (fasting glucose, HbA1c, vitamin C, GSH, RBC lipid peroxidation); settings: obese Zucker rats, daily 400 μg Cr(III)/kg, 8 weeks, mean; for RBC Lipid Peroxidase: malondialdehyde by thiobarbituric acid; for Fasting Glucose: fasted overnight; for Vitamin C: plasma
Obese Zucker rats [3] = test: In vivo assessment in obese Zucker rats: body weight and food intake; settings: obese Zucker rats, daily 400 μg Cr(III)/kg, mean; for Food Intake 5 wks: at 5 weeks; for Food Intake 7 wks: at 7 weeks
Obese Zucker rats [4] = test: In vivo assessment in obese Zucker rats: blood lipid profile (total cholesterol, triglycerides, HDL); settings: daily 400 μg Cr(III)/kg, 8 weeks, mean
Obese Zucker rats [5] = test: In vivo assessment in obese Zucker rats: other vascular inflammation markers (cAMP, TNFα, IL-6, OxyDNA); settings: obese Zucker rats, daily 400 μg Cr(III)/kg, 8 weeks, mean ± SE; for OxyDNA: oxidative DNA damage
Obese Zucker rats [6] = test: In vivo assessment in obese Zucker rats: clinical chemistry (AP, BUN, CRT, AST, ALT); settings: obese Zucker rats; mean ± SE

Row | Substance | Leptin (Obese Zucker rats [1]) | RBP-4 (Obese Zucker rats [1]) | Adiponectin (Obese Zucker rats [1]) | CRP (Obese Zucker rats [1]) | ICAM (Obese Zucker rats [1]) | MCP-1 (Obese Zucker rats [1]) | RBC Lipid Peroxidase (Obese Zucker rats [2]) | Fasting Glucose (Obese Zucker rats [2]) | GSH (Obese Zucker rats [2]) | HbA1c (Obese Zucker rats [2]) | Vitamin C (Obese Zucker rats [2]) | Food Intake 5 wks (Obese Zucker rats [3]) | Food Intake 7 wks (Obese Zucker rats [3]) | HDL (Obese Zucker rats [4]) | Total Chol/HDL (Obese Zucker rats [4]) | Total Cholesterol (Obese Zucker rats [4]) | Triglyceride (Obese Zucker rats [4]) | IL-6 (Obese Zucker rats [5]) | cAMP (Obese Zucker rats [5]) | OxyDNA (Obese Zucker rats [5]) | further results
1 | Chromium Dinicotinate Tryptophanate [Cr(nic)2Trp] | 363.21 pg/mL | 60017.14 ng/mL | 11752.86 ng/mL | 617.66 ng/mL | 17950.97 pg/mL | 2607.07 pg/mL | 1.96 nmol/mL | 513.43 mg/dL | 5.35 µmol/g | 15.55% | 0.13 mg % | 40.49 g/day | 40.78 g/day | 69.43 mg/dL | 2.86 ratio | 183.17 mg/dL | 470.67 mg/dL | 92.09 ± 1.89 pg/mL | 30.36 ± 1.48 pmol/mL | 39.35 ± 3.48 ng/mL | 
2 | Chromium Dinicotinate Argininate [Cr(nic)2Arg] | 335.80 pg/mL | 52537.50 ng/mL | 9279.38 ng/mL | 628.49 ng/mL | 18591.76 pg/mL | 3235.62 pg/mL | 2.47 nmol/mL | 628.87 mg/dL | 4.89 µmol/g | 16.56% | 0.14 mg % | 40.22 g/day | 45.28 g/day | 69.78 mg/dL | 3.00 ratio | 186.16 mg/dL | 554.65 mg/dL | 92.35 ± 2.79 pg/mL | 38.96 ± 3.88 pmol/mL | 58.26 ± 2.57 ng/mL | TNFα (Obese Zucker rats [5]): 17.84 ± 1.26 pg/mL
3 | Chromium Dinicotiante Glutamate [Cr(nic)2Glu] | 378.02 pg/mL | 46720.00 ng/mL | 12446.67 ng/mL | 519.94 ng/mL | 16980.59 pg/mL | 3197.58 pg/mL | 2.30 nmol/mL | 490.43 mg/dL | 5.05 µmol/g | 14.69% | 0.14 mg % | 37.51 g/day | 39.92 g/day | 65.57 mg/dL | 2.94 ratio | 192.14 mg/dL | 666.50 mg/dL | 89.50 ± 3.22 pg/mL | 29.97 ± 1.43 pmol/mL | 43.62 ± 2.69 ng/mL | BUN/CRT Ratio (Obese Zucker rats [6]): 44.71
4 | Chromium Dinicotinate Glycinate [Cr(nic)2Gly, reference compound] | 461.16 pg/mL | 54900.00 ng/mL | 12552.86 ng/mL | 535.98 ng/mL | 16691.40 pg/mL | 2897.61 pg/mL | 2.11 nmol/mL | 448.29 mg/dL | 4.86 µmol/g | 14.45% | 0.15 mg % | 34.29 g/day | 37.14 g/day | 64.57 mg/dL | 3.00 ratio | 193.14 mg/dL | 610.33 mg/dL | 91.96 ± 3.83 pg/mL | 31.40 ± 1.57 pmol/mL | 45.62 ± 1.86 ng/mL | 
